36 molecules from PubChem BioAssay (NCI) can be followed below.

“And” between values parts separate entries of the source, which are not always exact repeats. Identical values can stand only once.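 Interpolation was linear, between the two tested concentrations surrounding the appropriate level; five concentrations were tested over 48 hours in 96-well plates. GI50 marks 50% less growth. TGI is the concentration that stops growth completely.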

The experiment deals with MDA-MB-468 breast. The experiment in a line: NCI-60 cell line screen, 48 h.
Turning to `Nc1ccn(C2OC(CO)C(O)C2(F)F)c(=O)n1` (stereo not given), the GI50 is 18 nM and the TGI stood at 55.8 nM.
For `Cc1ccc2c(n1)C(=O)C(Cl)=C(Nc1cccc(C)c1C)C2=O`, the GI50 was 1530 nM and the TGI was 3250 nM.
In the same order, the values of `COC1C(O)CC(OC2CC(OC3CC(O[C@@H]4C(=O)c5c(cc6cc(OC7CC(OC8CC(O)C(O)C(C)O8)C(O)C(C)O7)c(C)c(O)c6c5O)CC4[C@H](OC)C(=O)C(C)=O)OC(C)C3O)OC(C)C2O)OC1C` (stereo not given in full) are 16.1 nM and 52.1 nM.
Consider `OCc1cn(Cc2ccc(Cl)cc2)c2ccccc12`, for which the GI50 was less than 10 nM.
As for `Cc1ccc(/C=C2\COc3ccc(O)c(O)c3C2=O)cc1`, the GI50 is 907 nM and the TGI is 2990 nM.
Take `COc1ccc(-c2cc(=O)oc3ccc(Cl)cc23)cc1F`: the GI50 is 110 nM and 29.5 nM; the TGI was 644 nM and 97.9 nM.
For `COc1ccc([As]=[As]c2ccc(OC)c(NCS(=O)(=O)O)c2)cc1NCS(=O)(=O)O` (stereo not given), the GI50 was 1290 nM and the TGI turned out to be 3060 nM.
Take `CCOC(=O)C1=C(C)N=C2SC=C(c3ccccc3)N2[C@H]1c1cn[nH]c1-c1ccc(Cl)cc1`: the GI50 is 3540 nM and the TGI turned out to be 16600 nM.
In the case of `O=C1c2ccccc2C(=O)c2c(Nc3ccc(CCO)cc3)ccc(O)c21`, the GI50 was 1430 nM and the TGI is 22800 nM.
For the molecule `COc1ccc(-c2nn(C(=O)NCCN(C)C)cc2-c2ccncc2)cc1Cl`, the GI50 is 1950 nM and the TGI came to 11700 nM.
On to `Fc1ccc(-c2nc(C(Cl)Cl)nc3cc(-c4ccccc4)nn23)cc1`, for which the GI50 is 2140 nM and the TGI was 4950 nM.
For `CCN(CC)c1ccc(C2=NN(C(C)=O)C(c3cc(OC)c(OC)c(OC)c3)C2)cc1` (stereo not given), the GI50 was 256 nM and the TGI came to 4100 nM.
`CC(=O)OC[C@H]1OC(O)C=C[C@@H]1OC(C)=O` (stereo not given in full): the GI50 was 82500 nM and the TGI came to 180000 nM.
On to `CCN(Cc1cccnc1)c1ccc(CO)c(Cl)c1`, for which the GI50 was 29 nM and the TGI came to 104 nM.
Turning to `CS(=O)(=O)c1ccc(Oc2cc(F)cc(C#N)c2)c2c1[C@H](O)[C@H](F)[C@H]2F`, the GI50 was greater than 100000 nM and the TGI is greater than 100000 nM.
In the case of `O=C(CI)OCC(COC(=O)CI)OC(=O)CI`, the GI50 was 2340 nM and the TGI is 7910 nM.
Turning to `CCOC(=O)c1ccc2c(c1)nc(-c1ccc(Cl)cc1)n2-c1cc(C(C)(C)C)[nH]n1`, the GI50 was 2120 nM and the TGI came to 8180 nM.
With `COc1ccc(O)c2c(=O)c3c(OC)cc4c(c3oc12)[C@@H]1C=CO[C@@H]1O4`, the GI50 was 131 nM and the TGI came to 447 nM.
Turning to `CS(=O)(=O)Nc1ccc(Nc2c3ccccc3nc3cc([N+](=O)[O-])ccc23)cc1`, the GI50 was 304 nM and the TGI stood at 2020 nM.
Regarding `Cc1ccc(C(=O)Nc2ccc(CNCCN3CCOCC3)c(C(F)(F)F)c2)cc1C#Cc1cnc2cccnn12`, the GI50 is 2150 nM and the TGI was 6190 nM.
For `Nc1ncc(-c2ccc3ncnc(N4CCc5ccc(Cl)cc54)c3c2)cn1`, in that order: 479 nM and 2080 nM.
In the same order, the values of `Cc1ccc(C(=Nc2ccccc2)N=P(c2ccccc2)(c2ccccc2)c2ccccc2)cc1` are 944 nM and 4300 nM.
As for `CCN(Cc1ccccc1F)c1ccc(CO)c(Cl)c1`, the TGI is 13 nM.
Consider `OCCCc1n(Cc2ccc3ccccc3c2)c2ccccc2[n+]1Cc1ccc2ccccc2c1`, for which the GI50 was 291 nM and the TGI came out at 1370 nM.
`CC(C)Sc1nc(Nc2ccc(S(N)(=O)=O)cc2)c(C#N)c(-c2ccc(F)cc2)n1`: the GI50 is 4590 nM and the TGI stood at 18000 nM.
As to `Cc1nc2ccc(Nc3nc(Cl)nc(Nc4ccc(F)cc4)n3)cc2n1Cc1ccccc1`, the GI50 was 1860 nM and the TGI turned out to be 3780 nM.
`C#CCN(C)CCCOc1ccc(NC(=O)CCCCCCC(=O)NO)cc1Cl`: the GI50 is 853 nM and the TGI was determined as 4980 nM.
For `COc1ccc(C(=O)/C=C/c2c(OC)cc(OC)cc2OC)c(OC)c1`, the GI50 is 1590 nM and the TGI worked out at 4660 nM.
Regarding `CC(C)Cc1ccc(C(C)C(=O)NCc2ccc(Cn3c(=O)sn(CCCCl)c3=O)cc2)cc1` (stereo not given), the GI50 is 1350 nM and the TGI turned out to be 3010 nM.
As to `COc1cc2cc(c1Cl)N(C)C(=O)C[C@H](OC(=O)[C@H](C)N(C)C(=O)CCS)C[C@]1(C)O[C@H]1[C@H](C)[C@@H]1C[C@@](O)(NC(=O)O1)[C@H](OC)/C=C/C=C(\C)C2`, the GI50 is less than 5 nM and the TGI is less than 5 nM.
As for `COc1cccc(C(=O)c2sc(Nc3ccc(N4CCN(C(C)C)CC4)cc3)nc2N)c1`, the GI50 was 1620 nM and the TGI was determined as 9220 nM.
In the case of `C/C(=N\NC(=O)c1ccc(C(C)(C)C)cc1)c1ccc(O)cc1O`, the GI50 is 1020 nM and the TGI was found to be 5100 nM.
In the same order, the values of `CS(=O)(=O)Nc1cc(-c2ccc3ncc(C#N)c(Nc4cccc(Cl)c4F)c3c2)cnc1Cl` are 116 nM and 1390 nM.
Turning to `CC12OC(CC(O)C1O)n1c3ccccc3c3c4c(c5c6ccccc6n2c5c31)C(=O)N(CCN1CCCC1)C4=O` (stereo not given), the GI50 is 1000 nM and the TGI worked out at 3110 nM.
In the same order, the values of `O=C1Nc2ccccc2/C1=C/C(=O)c1ccc(N2CCCC2)cc1` are 1960 nM and 6590 nM.
On to `COc1cc(/C=C2\CN(S(=O)(=O)c3ccc(C)cc3)C/C(=C\c3cc(CN4CCOCC4)c(O)c(OC)c3)C2=O)cc(CN2CCOCC2)c1O`, for which the GI50 is 4050 nM and the TGI was greater than 100000 nM.
